# Key:
# [1] = test system: acute lymphoblastic leukemia cells CCRF-CEM (K-RasG12D); test: Cell growth inhibition, suspension cells CCRF-CEM; type: cell-based; details: Homo sapiens, 1 μM, 72 hours, read-out: CCRF-CEM (KRasG12D) % inhibition at 1 μM
# Method: (§1) The cell growth inhibitory activity of the compound of the present invention on human culture cells having active-type mutation in Ras was evaluated by the below-mentioned method using suspension cancer cells {acute lymphoblastic leukemia cells CCRF-CEM (K-RasG12D), promyelocytic leukemia cells HL60 (N-RasQ61L), acute lymphoblastic leukemia cells MOLT4 (N-RasG12C), and small cell lung cancer cells SHP77 (K-RasG12V)} and adherent cancer cells {large bowel cancer cells SW480 (K-RasG12V) and large bowel cancer cell SW620 (K-RasG12V)}.
# (§2) (Case of suspension cells) The cells suspended in a medium containing 0.5% (v/v) fetal bovine serum (FBS) and each compound solution (final DMSO concentration: 1%) were seeded on a 96-well plate (2 to 4×10^4 cells/well), and the resulting mixture was then cultured at 37° C. in the presence of 5% CO2 for 72 hours.
# (§3) Thereafter, the number of viable cells was measured using Cell Counting Reagent (Nacalai Tesque) in accordance with the manufacturer's instructions. Inhibition by the test compound was determined according to the following equation: […]
# [2] = test system: acute lymphoblastic leukemia cells MOLT4 (N-RasG12C); test: Cell growth inhibition, suspension cells MOLT4; type: cell-based; details: Homo sapiens, MOLT-4, 72 hours
# Method: as §1, §2, §3
# [3] = test system: small cell lung cancer cells SHP77 (K-RasG12V); test: Cell growth inhibition, suspension cells SHP77; type: cell-based; details: Homo sapiens, 72 hours; for inhibition at 3.2 µM: read-out: SHP77 (KRasG12V) % inhibition at 3.2 μM (**)
# Method: as §1, §2, §3
# [4] = test system: large bowel cancer cell SW620 (K-RasG12V); test: Cell growth inhibition, adherent cells SW620; type: cell-based; details: Homo sapiens, SW-620, 72 hours; for inhibition at 3.2 µM: read-out: SW620 (KRasG12V) % inhibition at 3.2 μM (***)
# Method: as §1
# (Case of adherent cells) The cells suspended in a medium containing 10% FBS (1 to 2×10^4 cells/well) were seeded on a 96-well plate, and were then cultured at 37° C. in the presence of […]. Thereafter, the medium was exchanged with a medium containing […], to which each compound solution (final DMSO concentration: […]) had been added, and the cells were then cultured at 37° C. in the presence of […] for 72 hours.
# as §3
# [5] = biological target: GTPγS-bound human HRasG12V / human c-Raf-1 Ras binding domain (RBD) (Homo sapiens (Human), UniProt P01112, G12V); test: Ras-Raf binding inhibition ELISA; details: for IC50: anti-HRas antibody C-20, read-out: ELISA IC50 (μM): 1st Ab_C-20
# How it was run: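 GST-c-Raf-1 RBD (aa 50-131) immobilized on glutathione plates, then GTPγS-loaded full-length HRasG12V added with compound (final 10% DMSO), 1 h at 30 °C, pH 7.4 Tris buffer. Bound Ras detected by anti-HRas antibody (C-20 or 259) and HRP secondary, TMB read at OD450; IC50 from inhibition.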
# Sequence of GTPγS-bound human HRasG12V / human c-Raf-1 Ras binding domain (RBD) (P01112 whole entry G12V, the tested form may be a part): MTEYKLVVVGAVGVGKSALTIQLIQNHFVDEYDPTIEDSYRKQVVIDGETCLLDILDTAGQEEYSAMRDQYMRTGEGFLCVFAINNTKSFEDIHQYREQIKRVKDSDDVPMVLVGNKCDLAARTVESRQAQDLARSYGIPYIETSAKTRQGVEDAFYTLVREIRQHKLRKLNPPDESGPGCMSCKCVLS
inhibition at 1 µM [5] [%],IC50 [5] [µM],Structure (SMILES),inhibition at 3.2 µM [3] [%],inhibition at 3.2 µM [4] [%],also measured
,,"CCOc1cc(/C=C2/C(=O)c3ccccc3N2C(C)=O)ccc1OCC(N)=O [Example 13, 2-(4-((1-acetyl-3-oxoindolin-2-ylidene)methyl)-2-ethoxyphenoxy)-acetamide]",,,"inhibition at 1 µM [1]: 33%; inhibition at 10 µM ([2]; 10 μM (**), read-out: MOLT-4 (NRasG12C) % inhibition at 10 μM (**)): 100%"
,,"COc1cc(/C=C2/C(=O)c3ccccc3N2C(C)=O)ccc1OCS(C)(=O)=O [Example 24, 1-acetyl-2-(3-methoxy-4-((methylsulfon-yl)methoxy)-benzylidene)-indolin-3-one]",,,"inhibition at 1 µM [1]: 88%; inhibition at 1 µM ([2]; 1 μM, read-out: MOLT-4 (NRasG12C) % inhibition at 1 μM): 54%"
53.5,0.9,"CC(=O)N1/C(=C\c2cc(-c3cccc(-c4ccccc4)c3)c3cc(C(=O)O)ccc3n2)C(=O)c2ccccc21 [Example 152, (Z)-4-([1,1′-biphenyl]-3-yl)-2-((1-acetyl-3-oxo-indolin-2-ylidene)-methyl)quinoline-6-carboxylic acid]",81.1,97.2,
63.1,1.1,"CC(=O)N1/C(=C\c2cc(-c3cccc4ccccc34)c3cc(C(=O)O)ccc3n2)C(=O)c2ccccc21 [Example 153, (Z)-2-((1-acetyl-3-oxoindolin-2-ylidene)methyl)-4-(naphthalen-1-yl)quinoline-6-carboxylic acid]",65.7,96.1,
52,0.9,"CC(=O)N1/C(=C\c2cc(-c3ccc(-c4ccccc4)cc3)c3cc(C(=O)O)ccc3n2)C(=O)c2ccccc21 [Example 156, (Z)-4-([1,1′-biphenyl]-4-yl)-2-((1-acetyl-3-oxoindolin-2-ylidene)methyl)-quinoline-6-carboxylic acid]",35.1,99,
61.4,0.6,"CC(=O)N1/C(=C\c2cc(-c3ccc4ccccc4c3)c3cc(C(=O)O)ccc3n2)C(=O)c2ccccc21 [Example 157, (Z)-2-((1-acetyl-3-oxoindolin-2-ylidene)methyl)-4-(naphthalen-2-yl)quinoline-6-carboxylic acid]",49.2,97.5,
59.2,0.8,"CC(=O)N1/C(=C\c2cc(-c3cccc(-c4ccccc4)c3)c3cc(C(=O)N4CCN(C5COC5)CC4)ccc3n2)C(=O)c2ccccc21 [Example 158, (Z)-2-((4-([1,1′-biphenyl]-3-yl)-6-(4-(oxetan-3-yl)-piperazine-1-carbonyl)quinolin-2-yl)methylene)-1-acetylindolin-3-one]",72.4,58.5,
72.7,0.3,"CC(=O)N1/C(=C\c2cc(-c3cccc4ccccc34)c3cc(C(=O)N4CCN(C5COC5)CC4)ccc3n2)C(=O)c2ccccc21 [Example 159, (Z)-1-acetyl-2-((4-(naphthalen-1-yl)-6-(4-(oxetan-3-yl)piperazine-1-carbonyl)quinolin-2-yl)methylene)-indolin-3-one]",52.6,96.6,
63.8,0.7,"CC(=O)N1/C(=C\c2cc(-c3ccc4ccccc4c3)c3cc(C(=O)N4CCN(C5COC5)CC4)ccc3n2)C(=O)c2ccccc21 [Example 163, (Z)-1-acetyl-2-((4-(naphthalen-2-yl)-6-(4-(oxetan-3-yl)piperazine-1-carbonyl)quinolin-2-yl)methylene)-indolin-3-one]",72.3,34.7,
48.7,1.2,"CC(=O)N1/C(=C\c2cc(-c3cccc(-c4ccccc4)c3)c3cc(CNC4CCOCC4)ccc3n2)C(=O)c2ccccc21 [Example 164, (Z)-2-((4-([1,1′-biphenyl]-3-yl)-6-(((tetrahydro-2H-pyran-4-yl)amino)-methyl)quinolin-2-yl)methylene)-1-acetylindolin-3-one]",43.5,,
62.2,0.8,"CC(=O)N1/C(=C\c2cc(-c3cccc4cccnc34)c3cc(CNC4CCOCC4)ccc3n2)C(=O)c2ccccc21 [Example 167, (Z)-1-acetyl-2-((6-(((tetrahydro-2H-pyran-4-yl)-amino)methyl)-[4,8′-biquinolin]-2-yl)methylene)-indolin-3-one]",65.8,64.4,
48.4,1.3,"CC(=O)N1/C(=C\c2cc(-c3ccc(-c4ccccc4)cc3)c3cc(CNC4CCOCC4)ccc3n2)C(=O)c2ccccc21 [Example 168, (Z)-2-((4-([1,1′-biphenyl]-4-yl)-6-(((tetrahydro-2H-pyran-4-yl)amino)-methyl)quinolin-2-yl)methylene)-1-acetylindolin-3-one]",53.1,,
52.4,0.9,"CC(=O)N1/C(=C\c2cc(-c3ccc4ccccc4c3)c3cc(CNC4CCOCC4)ccc3n2)C(=O)c2ccccc21 [Example 169, (Z)-1-acetyl-2-((4-(naphthalen-2-yl)-6-(((tetrahydro-2H-pyran-4-yl)-amino)methyl)-quinolin-2-yl)-methylene)indolin-3-one]",51.5,35.1,
43.7,1.5,"CC(=O)N1/C(=C\c2cc(-c3nccn3C)c3cc(C(=O)N4CCOCC4)ccc3n2)C(=O)c2ccccc21 [Example 180, (Z)-1-acetyl-2-((4-(1-methyl-1H-imidazol-2-yl)-6-(morpholine-4-carbonyl)quinolin-2-yl)methylene)-indolin-3-one]",69.2,,
66.7,,"CC(=O)N1CCc2cc(-c3cc(/C=C4/C(=O)c5ccccc5N4C(C)=O)nc4ccccc34)ccc2C1 [Example 187, (Z)-1-acetyl-2-((4-(2-acetyl-1,2,3,4-tetra-hydroisoquinolin-6-yl)-quinolin-2-yl)methylene)-indolin-3-one]",,,"inhibition at 1 µM ([3]; 1 μM, read-out: SHP77 (KRasG12V) % inhibition at 1 μM): 66.8%; inhibition at 1 µM ([4]; 1 μM, read-out: SW620 (KRasG12V) % inhibition at 1 μM): 39.3%"
60.4,,"CC(=O)N1CCc2c(cccc2-c2cc(/C=C3/C(=O)c4ccccc4N3C(C)=O)nc3ccccc23)C1 [Example 193, (Z)-1-acetyl-2-((4-(2-acetyl-1,2,3,4-tetra-hydroisoquinolin-5-yl)quinolin-2-yl)methylene)-indolin-3-one]",98.1,96.1,
55.4,0.9,"CC(=O)N1/C(=C\c2cc(-c3cnccn3)c3cc(C(=O)N4CCOCC4)ccc3n2)C(=O)c2ccccc21 [Example 194, (Z)-1-acetyl-2-((6-(morpholine-4-carbonyl)-4-(pyrazin-2-yl)-quinolin-2-yl)-methylene)indolin-3-one]",58.3,,
55.7,0.9,"CC(=O)N1/C(=C\c2ccc3c(-c4cccc5ccccc45)c(C(=O)N4CCOCC4)ccc3n2)C(=O)c2ccccc21 [Example 195, (Z)-1-acetyl-2-((6-(morpholine-4-carbonyl)-5-(naphthalen-1-yl)-quinolin-2-yl)-methylene)indolin-3-one]",96.4,95.4,
,,"CC(=O)N1/C(=C\c2ccc3cc(C(=O)N4CCOCC4)cc(-c4cccc5ccccc45)c3n2)C(=O)c2ccccc21 [Example 197, 1-acetyl-2-((6-(morpholine-4-carbonyl)-8-(naphthalen-1-yl)-quinolin-2-yl)-methylene)indolin-3-one]",65.7,35.5,inhibition at 10 µM [5]: 35.3%
,,"CC(=O)N1/C(=C\c2nc3ccc(C(=O)O)cc3cc2-c2cccc3ccccc23)C(=O)c2ccccc21 [Example 202, (Z)-2-((1-acetyl-3-oxoindolin-2-ylidene)methyl)-3-(naphthalen-1-yl)-quinoline-6-carboxylic acid]",63.6,96.6,

# — patent US20250091994A1, “RAS/RAF BINDING INHIBITOR COMPOUND” (NATIONAL UNIVERSITY CORPORATION KOBE UNIVERSITY, priority 2021, published 2025)
